Test results reported in the NIST ThermoML archive (doi:10.1021/je2012555).
± gives the expanded uncertainty stated by the source.

Experiments:
[1] = mn = molality of the nth substance listed, in mol/kg; settings: 101 kPa, Liquid; for mass density: Vibrating tube method
[2] = cn = amount concentration of the nth substance listed, in mol/dm3; settings: 298.15 K, 101 kPa, Liquid, Vibrating tube method

CNC(=O)CNC(C)=O [2-acetamido-N-methylacetamide] + O
[1]
Settings	apparent molar heat capacity [J/K/mol]	mass density [kg/m3]
298.15 K, m1 = 0.04565	–	998.056 ± 0.067
298.15 K, m1 = 0.0479	328.9 ± 8.5	–
298.15 K, m1 = 0.05924	–	998.352 ± 0.066
298.15 K, m1 = 0.0715	328.6 ± 5.8	–
298.15 K, m1 = 0.07804	–	998.754 ± 0.066
298.15 K, m1 = 0.09293	–	999.062 ± 0.066
298.15 K, m1 = 0.0958	327.8 ± 4.4	–
298.15 K, m1 = 0.0987	–	999.177 ± 0.066
298.15 K, m1 = 0.1439	326 ± 3.1	–
298.15 K, m1 = 0.153	–	1000.32 ± 0.066
298.15 K, m1 = 0.1615	–	1000.5 ± 0.066
298.15 K, m1 = 0.1766	–	1000.79 ± 0.066
298.15 K, m1 = 0.1889	–	1001.04 ± 0.066
298.15 K, m1 = 0.1912	324 ± 2.4	–
303.15 K, m1 = 0.0479	334.9 ± 8.5	–
303.15 K, m1 = 0.0715	336.1 ± 5.8	–
303.15 K, m1 = 0.0958	334.3 ± 4.4	–
303.15 K, m1 = 0.1439	333.6 ± 3.1	–
303.15 K, m1 = 0.1912	330.6 ± 2.4	–
308.15 K, m1 = 0.0479	343 ± 8.5	–
308.15 K, m1 = 0.0715	343.3 ± 5.8	–
308.15 K, m1 = 0.0958	342.7 ± 4.4	–
308.15 K, m1 = 0.1439	343.1 ± 3.1	–
308.15 K, m1 = 0.1912	342.7 ± 2.4	–
313.15 K, m1 = 0.0479	349.6 ± 8.5	–
313.15 K, m1 = 0.0715	350 ± 5.8	–
313.15 K, m1 = 0.0958	349.6 ± 4.5	–
313.15 K, m1 = 0.1439	350.6 ± 3.1	–
313.15 K, m1 = 0.1912	350.9 ± 2.5	–
318.15 K, m1 = 0.0479	357 ± 8.5	–
318.15 K, m1 = 0.0715	358.4 ± 5.8	–
318.15 K, m1 = 0.0958	359.1 ± 4.5	–
318.15 K, m1 = 0.1439	358.2 ± 3.1	–
318.15 K, m1 = 0.1912	360 ± 2.5	–
323.15 K, m1 = 0.0479	360.1 ± 8.5	–
323.15 K, m1 = 0.0715	361.7 ± 5.8	–
323.15 K, m1 = 0.0958	361.6 ± 4.5	–
323.15 K, m1 = 0.1439	361.4 ± 3.1	–
323.15 K, m1 = 0.1912	363 ± 2.5	–
328.15 K, m1 = 0.0479	365.8 ± 8.5	–
328.15 K, m1 = 0.0715	366.7 ± 5.8	–
328.15 K, m1 = 0.0958	367.2 ± 4.5	–
328.15 K, m1 = 0.1439	369.7 ± 3.1	–
328.15 K, m1 = 0.1912	369.1 ± 2.5	–

CNC(=O)[C@H](CC(C)C)NC(C)=O [(S)-2-acetamido-N,4-dimethylpentanamide] + O
[1]
Settings	apparent molar heat capacity [J/K/mol]	mass density [kg/m3]
298.15 K, m1 = 0.0463	681 ± 9.2	–
298.15 K, m1 = 0.04684	–	997.65 ± 0.064
298.15 K, m1 = 0.0559	682.8 ± 7.7	–
298.15 K, m1 = 0.07	682.5 ± 6.3	–
298.15 K, m1 = 0.08312	–	998.122 ± 0.064
298.15 K, m1 = 0.0936	680.2 ± 4.9	–
298.15 K, m1 = 0.09402	–	998.23 ± 0.064
298.15 K, m1 = 0.1007	–	998.343 ± 0.064
298.15 K, m1 = 0.108	–	998.407 ± 0.065
298.15 K, m1 = 0.1129	680 ± 4.4	–
298.15 K, m1 = 0.1157	–	998.565 ± 0.065
298.15 K, m1 = 0.13	–	998.75 ± 0.065
298.15 K, m1 = 0.1414	–	998.921 ± 0.064
298.15 K, m1 = 0.1423	681.9 ± 3.8	–
298.15 K, m1 = 0.1613	–	999.112 ± 0.064
303.15 K, m1 = 0.0463	683.5 ± 9.2	–
303.15 K, m1 = 0.0559	684.7 ± 7.7	–
303.15 K, m1 = 0.07	684.3 ± 6.3	–
303.15 K, m1 = 0.0936	682.6 ± 4.9	–
303.15 K, m1 = 0.1129	682.2 ± 4.4	–
303.15 K, m1 = 0.1423	684.4 ± 3.8	–
308.15 K, m1 = 0.0463	687.5 ± 9.2	–
308.15 K, m1 = 0.0559	688.6 ± 7.7	–
308.15 K, m1 = 0.07	687.3 ± 6.3	–
308.15 K, m1 = 0.0936	688.3 ± 5	–
308.15 K, m1 = 0.1129	686.7 ± 4.4	–
308.15 K, m1 = 0.1423	687.4 ± 3.8	–
313.15 K, m1 = 0.0463	690.1 ± 9.2	–
313.15 K, m1 = 0.0559	691.3 ± 7.7	–
313.15 K, m1 = 0.07	690.9 ± 6.3	–
313.15 K, m1 = 0.0936	690.3 ± 5	–
313.15 K, m1 = 0.1129	689.6 ± 4.4	–
313.15 K, m1 = 0.1423	691.1 ± 3.8	–
318.15 K, m1 = 0.0463	691.6 ± 9.2	–
318.15 K, m1 = 0.0559	692.3 ± 7.7	–
318.15 K, m1 = 0.07	692.3 ± 6.3	–
318.15 K, m1 = 0.0936	691.5 ± 5	–
318.15 K, m1 = 0.1129	691.7 ± 4.4	–
318.15 K, m1 = 0.1423	692.4 ± 3.8	–
323.15 K, m1 = 0.0463	693.1 ± 9.2	–
323.15 K, m1 = 0.0559	694.7 ± 7.7	–
323.15 K, m1 = 0.07	694.8 ± 6.3	–
323.15 K, m1 = 0.0936	693.4 ± 5	–
323.15 K, m1 = 0.1129	693.6 ± 4.4	–
323.15 K, m1 = 0.1423	694.8 ± 3.8	–
328.15 K, m1 = 0.0463	695.9 ± 9.2	–
328.15 K, m1 = 0.0559	696.8 ± 7.7	–
328.15 K, m1 = 0.07	696.9 ± 6.3	–
328.15 K, m1 = 0.0936	695.8 ± 5	–
328.15 K, m1 = 0.1129	697.5 ± 4.4	–
328.15 K, m1 = 0.1423	696.4 ± 3.8	–

CNC(=O)[C@H](C)NC(C)=O [(S)-2-acetamido-N-methylpropanamide] + O
[1]
Settings	apparent molar heat capacity [J/K/mol]	mass density [kg/m3]
298.15 K, m1 = 0.02067	–	997.447 ± 0.065
298.15 K, m1 = 0.04272	–	997.844 ± 0.066
298.15 K, m1 = 0.0448	431 ± 9.1	–
298.15 K, m1 = 0.0545	429.7 ± 7.6	–
298.15 K, m1 = 0.0683	431.5 ± 6.2	–
298.15 K, m1 = 0.0751	–	998.437 ± 0.066
298.15 K, m1 = 0.0909	429.6 ± 4.8	–
298.15 K, m1 = 0.1031	–	998.944 ± 0.065
298.15 K, m1 = 0.1226	–	999.278 ± 0.065
298.15 K, m1 = 0.1376	427.5 ± 3.3	–
298.15 K, m1 = 0.1431	–	999.644 ± 0.066
298.15 K, m1 = 0.1816	–	1000.36 ± 0.066
303.15 K, m1 = 0.0448	436.8 ± 9.2	–
303.15 K, m1 = 0.0545	437.5 ± 7.6	–
303.15 K, m1 = 0.0683	437.5 ± 6.2	–
303.15 K, m1 = 0.0909	437 ± 4.8	–
303.15 K, m1 = 0.1376	434.7 ± 3.3	–
308.15 K, m1 = 0.0448	444 ± 9.2	–
308.15 K, m1 = 0.0545	444.1 ± 7.6	–
308.15 K, m1 = 0.0683	442.3 ± 6.2	–
308.15 K, m1 = 0.0909	442.9 ± 4.8	–
308.15 K, m1 = 0.1376	442.4 ± 3.3	–
313.15 K, m1 = 0.0448	448 ± 9.2	–
313.15 K, m1 = 0.0545	447.7 ± 7.6	–
313.15 K, m1 = 0.0683	450.6 ± 6.2	–
313.15 K, m1 = 0.0909	450.6 ± 4.8	–
313.15 K, m1 = 0.1376	448.4 ± 3.3	–
318.15 K, m1 = 0.0448	453.6 ± 9.2	–
318.15 K, m1 = 0.0545	453.6 ± 7.6	–
318.15 K, m1 = 0.0683	453.3 ± 6.2	–
318.15 K, m1 = 0.0909	453.9 ± 4.8	–
318.15 K, m1 = 0.1376	453.5 ± 3.3	–
323.15 K, m1 = 0.0448	457.5 ± 9.2	–
323.15 K, m1 = 0.0545	458.3 ± 7.6	–
323.15 K, m1 = 0.0683	457.3 ± 6.2	–
323.15 K, m1 = 0.0909	458.2 ± 4.8	–
323.15 K, m1 = 0.1376	458 ± 3.4	–
328.15 K, m1 = 0.0448	459.8 ± 9.2	–
328.15 K, m1 = 0.0545	462.9 ± 7.6	–
328.15 K, m1 = 0.0683	462.4 ± 6.2	–
328.15 K, m1 = 0.0909	461.2 ± 4.8	–
328.15 K, m1 = 0.1376	461.5 ± 3.4	–

CNC(=O)[C@H](Cc1cnc[nH]1)NC(C)=O [N-acetyl-N'-methyl-L-alpha-histidinamide] + O
apparent molar heat capacity [J/K/mol], [1]
Settings	m1 = 0.0546	m1 = 0.0551	m1 = 0.0616	m1 = 0.0777	m1 = 0.091	m1 = 0.109	m1 = 0.1358	m1 = 0.137
298.15 K	595.6 ± 7.8	594.5 ± 7.7	600.5 ± 7	595.1 ± 5.7	596.7 ± 5	598.8 ± 4.3	598.5 ± 3.7	597.9 ± 3.7
303.15 K	606.8 ± 7.8	610.2 ± 7.7	612 ± 7	609.8 ± 5.7	608.7 ± 5	610.9 ± 4.3	612.6 ± 3.7	608 ± 3.7
308.15 K	621.8 ± 7.8	618.1 ± 7.8	620.9 ± 7	621.4 ± 5.7	619.4 ± 5	622.5 ± 4.3	621 ± 3.8	624.6 ± 3.7
313.15 K	634 ± 7.8	628.9 ± 7.8	631.6 ± 7	629.5 ± 5.7	635.5 ± 5	630.5 ± 4.3	637.1 ± 3.8	631.6 ± 3.8
318.15 K	640.4 ± 7.8	637 ± 7.8	642.3 ± 7	638 ± 5.7	640.8 ± 5	637.5 ± 4.4	638.9 ± 3.8	643.6 ± 3.8
323.15 K	648.2 ± 7.9	652 ± 7.8	651.7 ± 7	648.2 ± 5.7	646.7 ± 5	654 ± 4.4	650.6 ± 3.8	650.9 ± 3.8
328.15 K	657.3 ± 7.9	659.5 ± 7.8	657 ± 7.1	656.4 ± 5.8	656.4 ± 5	660.5 ± 4.4	660 ± 3.9	656 ± 3.8

[2]
Settings	mass density [kg/m3]
c1 = 0.03827	998.76 ± 0.079
c1 = 0.04755	999.201 ± 0.08
c1 = 0.04924	999.284 ± 0.073
c1 = 0.05453	999.47 ± 0.075
c1 = 0.05796	999.649 ± 0.079
c1 = 0.06518	999.989 ± 0.079
c1 = 0.0682	1000.14 ± 0.076
c1 = 0.07517	1000.41 ± 0.077
c1 = 0.07826	1000.59 ± 0.084
c1 = 0.09152	1001.16 ± 0.066
c1 = 0.0919	1001.16 ± 0.066
c1 = 0.09948	1001.49 ± 0.076
c1 = 0.1126	1002.02 ± 0.075
c1 = 0.1188	1002.28 ± 0.075
